Assay results reported in US11883405B2, “Pharmaceutical composition comprising a combination of methotrexate and novobiocin, and the use of said composition in therapy” (Amplio Pharma AB, priority 2017, dated 2024).
Where two headings read alike, the source gives them in different places.

Legend:
neutrophils [1] = test: Induction of neutrophil apoptosis (in vitro/ex vivo model of arthritis); format: cell-based, human
Text: (§1) Apoptosis, in contrast to necrosis, is the demise of a cell through a series of controlled sequential events, resulting in an increase of anti-inflammatory mediators instead of invoking an inflammatory response, because the contents of the cell are removed by phagocytosis and not released to the direct environment. Apoptosis involves the activation of caspases, including caspase 3. Aberration in expression and/or function of the regulators of cell death through apoptosis is thought to result in pathological conditions, including autoimmune diseases and cancer. Although apoptotic cells are uncommonly observed in vivo in RA tissues, in vitro inflammatory cells from RA tissues, like synoviocytes, T-cells and macrophages, are highly susceptible to apoptosis induced through the FAS-TNF-receptor pathway. The absence of apoptotic cells in vivo may be explained by the high levels of nitric oxide in RA tissues, which inhibits caspase 3 and thus cell apoptosis.
(§2) Novobiocin is a topoisomerase II inhibitor and at therapeutically relevant concentration levels, is expected to counteract CPPD-triggered prolonged survival of neutrophils. Such a pharmacodynamic effect of Novobiocin may be quantified either through activity (levels) of caspase 3, an apoptotic cleavage enzyme, or cytoplasmic histone-associated-DNA fragmentation assessment, using commercially available kits.
(§3) In the latter model, the effect on neutrophil apoptosis can be either studied directly, or indirectly, exposing the cells in vitro to a challenge that prolongs their survival (e.g. CPPD crystals).
(§4) CPPD (Ca2P2O7.2H2O; triclinic form) crystals can be obtained using well described methods (Burt H M et al. 1989; Gras P. et al. 2013). Plasma protein coating of the crystals is achieved through incubation of the crystals in 50% plasma (Tudan C et al. 2003). The CPPD crystals are used in experiments with neutrophils from healthy control individuals/animals to mimic arthritic disease.
(§5) Neutrophils are separated from fresh human (healthy control/patient) or rat (healthy control; disease model) blood using standard methods and suspended in buffer at a concentration of 1×10^6 cells/ml. The cells are incubated at 37° C. with occasional tumbling.
(§6) Stock solutions of TNFalpha, Methotrexate and Novobiocin are prepared in DMSO, keeping the DMSO concentrations in the cell suspensions below 0.1% during the experiment. The apoptosis rate following the administration of vehicle without active agent (negative control) represents the baseline rate of apoptosis (no effect level), while the apoptosis rate following the administration of TNFalpha (positive control) represents the maximum rate of apoptosis (100% effect level).

neutrophils [2] = test: as above; format: cell-based, rat
Text: as §1, §2, §3, §4, §5, §6

MMP1 (collagenase) = test: IL-1 induced mRNA upregulation of MMP1 in primary chondrocyte culture; format: cell-based, calf; conditions: concentrations <100 uM
Protocol: (§7) Primary chondrocyte culture was freshly isolated from calf cartilage. The cells were plated (at 2.5×10^6 per mL) in 100×20 mm culture dishes and incubated in Ham's F12 medium containing 5% fetal bovine serum (FBS) overnight at 37° C. The cells were starved with serum-free medium overnight. The cells were pretreated with MTX, NOV or a combination of MTX with 1, 2, 10 or 20 eq of NOV for 6 hours. Then IL-1 (20 ng/mL) was added to each plate and the plates were incubated for an additional 18 h.
(§8) Total RNA was isolated by the acidified guanidine isothiocyanate method and subjected to electrophoresis on a denatured gel. Denatured RNA samples were analyzed by gel electrophoresis in a 1% denaturing gel, transferred to a nylon membrane and hybridized respectively with the ^32P-cDNA probes for MMP1, MMP3 and proteoglycan and analyzed.

MMP3 (stromelysin1) = test: IL-1 induced mRNA upregulation of MMP3 in primary chondrocyte culture; format: cell-based; conditions: calf chondrocytes, IL-1 20 ng/mL; concentrations <100 uM
Protocol: as §7, §8

[3] = tested on: pristane-induced arthritis; test: Pristane-induced arthritis (PIA) rat model; format: in vivo
Protocol: The animals are acclimatized for approximately one week before initiation of experiment. All rats are weighed day 0, the day of disease induction, for determination of mean weight of the rats included in the experiment. Arthritis is induced by subcutaneous (s.c.) administration of 200 μl pristane on Day 0. The rats are anesthetized by inhaling a mixture of Isoba vet (3.5%) and oxygen. The root of the tail is cleaned with 70% ethanol and the oil is injected approximately 0.5 cm from the root of the tail. A slight pressure is put on the injection site for 5 seconds after injection to prevent leakage of the oil. Test compounds are administered either i.v. or p.o. (by gavage). Disease is evaluated three times per week from disease onset using a macroscopic scoring system of the four limbs ranging from 0 to 15 (1 point for each swollen or red toe, 1 point for a swollen or red mid foot digit or knuckle, 5 points for a swollen ankle) resulting in a maximum total score of 60 for each rat. The disease scoring is done in a double-blind fashion, i.e. the scorer is unaware of the treatment received by the animal. […]

[4] = Pharmacokinetic cross-over study in healthy volunteers (oral / subcutaneous); format: in vivo, human; conditions: for absorption: after oral and subcutaneous administration
Protocol: Administrations are separated by a wash-out period of 7-14 days. […] Plasma samples are stored at −20° C. until analysis. The primary objective of the study is to evaluate the relative bio-availability of methotrexate following its co-administration with novobiocin. Secondary objectives of the study include the overall tolerability and safety of the co-administration of a therapeutic dose of methotrexate with a non-therapeutic dose of novobiocin for both administration routes overall and in comparison, to administration of methotrexate alone.

[5] = rat, in vivo
Protocol: (§9) In vivo study protocol—in accordance with local (Malmo, Sweden) animal ethic license number M388-12: Following acclimatization to the housing conditions for a minimum of 7 days after arrival, male Wistar (Hannover) rats (Taconic, Denmark), average weight 300 g; average age 8-10 weeks, are treated with test items (see table 1); 12-16 h prior to dosing all food except for an amount equivalent to a half day consumption is removed. The test items are administrated using a soft gavage tube (p.o.) or by injecting the test item in the tail vein (i.v). The volume given is 5 mL/kg (p.o.) or 1 mL/kg (i.v.). Before i.v administration rats are anesthetized using isoflurane. The rats are conscious during sample collection and the blood is taken from the sub-lingual vein. Blood samples are collected from each rat over a period of up to 24 h. At each time point two aliquots of 50 μL each is added to a vial containing 150 μL of sterile water. The samples are mixed immediately and stored at −18° C. until preparation for bioanalysis is commenced. All formulations are prepared on the same day that dosing takes place. The body weight of the rat is recorded before dosing. The weight of the syringe is recorded before and after administration to allow calculation of the actual amount of test sample delivered. The actual doses are used during the evaluation of the data.
(§10) Samples and standards are injected by a HTC PAL from CTC analytics into an LC system from Shimadzu consisting of a high-pressure gradient system of two LC-10 AD pumps controlled by a SCL-10A controller from Shimadzu. The samples are separated using reverse-phase chromatography with gradient elution at a flow rate of 0.8 mL/min. Mobile phases are A:94.9/5/0.1 water/acetonitrile/formic acid and B:5/94.9/0.1 water/acetonitrile/formic acid. Gradient starts at 0% B and increases linearly to 100% B in 4 minutes, 100% B is kept for 0.5 minutes and then the system returns to 0% B in 0.1 minutes. The system is equilibrated for 1.4 minutes until the total run time of 6 minutes. The eluent is analysed by a Quattro Ultima from Micromass equipped with an electrospray ion source. Data are collected, and calibrations are calculated by MassLynx 4.0 software. […] The eluent is ionized by negative ion electrospray.
(§11) The diluted blood sample (50 μL blood, 150 μL water) is thawed and mixed with 400 μL of acetonitrile, to precipitate the protein. The sample is centrifuged at 5000 g for 5 minutes and 100 μL of the supernatant is transferred to a 300 μL glass vial and 100 μL of water is added to reduce the acetonitrile concentration.
(§12) The concentration of the standard curve is in the range from 5 nM to 15625 nM. Samples with analyte concentrations above the upper limit of quantification are diluted with matrix to reach within the assay range. A non-compartmental analysis (NCA) is performed using the Phoenix WinNonLin analysis tool.

[6] = rodents; cited from earlier work
[7] = cited from earlier work
plasma albumin = molecular target: T1, plasma albumin (Homo sapiens, UniProt P02768); conditions: in men; cited from earlier work
T1 construct: host or cells: human plasma

[8] = adults; cited from earlier work
[9] = Pharmacokinetics in rats after oral (gavage) or parenteral administration
Protocol: as §9, §10, §11, §12

MMP1 = conditions: cited from earlier work; for IL-1 induced increase in MMP1 expression: Nose M. et al. (1997)
MMP3 = conditions: cited from earlier work
[10] = cited from earlier work; remark: listed apart in the source
RA patients = conditions: 15 mg/wk, cited from earlier work
[11] = therapeutically effective treatment dose level; cited from earlier work
neutrophils [12] = conditions: 4 months after reaching a therapeutic dose of more than 20 mg/week; cited from earlier work
[13] = neutrophils from healthy subjects, concentrations <60 uM
[14] = neutrophils from healthy rat, concentrations <60 uM
[15] = male, Wistar (Hannover), rat, whole blood, ip, 5.5 mg/kg
[16] = male, Wistar (Hannover), rat, whole blood, po, 55 mg/kg
[17] = at 1×10^−7 M, Jackson J K et al. (2008)
[18] = male, Wistar (Hannover), rat, whole blood, po, 2 mg/kg

T1 sequence (P02768 25-609): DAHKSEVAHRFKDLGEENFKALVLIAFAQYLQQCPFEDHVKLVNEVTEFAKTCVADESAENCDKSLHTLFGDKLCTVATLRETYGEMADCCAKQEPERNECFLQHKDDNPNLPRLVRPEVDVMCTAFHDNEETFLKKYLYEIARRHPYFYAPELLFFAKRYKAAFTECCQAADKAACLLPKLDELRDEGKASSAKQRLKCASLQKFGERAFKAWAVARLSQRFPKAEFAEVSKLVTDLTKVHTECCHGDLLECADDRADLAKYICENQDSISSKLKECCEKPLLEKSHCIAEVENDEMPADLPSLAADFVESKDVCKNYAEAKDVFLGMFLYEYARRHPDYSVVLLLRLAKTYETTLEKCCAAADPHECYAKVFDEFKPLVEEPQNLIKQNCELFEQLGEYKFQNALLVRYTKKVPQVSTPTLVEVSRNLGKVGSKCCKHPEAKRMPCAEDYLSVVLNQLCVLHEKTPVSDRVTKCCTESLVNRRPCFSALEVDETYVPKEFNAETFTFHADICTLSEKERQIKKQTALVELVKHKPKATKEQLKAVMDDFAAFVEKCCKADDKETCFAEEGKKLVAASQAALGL

SMILES: CO[C@@H]1[C@@H](OC(N)=O)[C@@H](O)[C@H](Oc2ccc3c(O)c(NC(=O)c4ccc(O)c(CC=C(C)C)c4)c(=O)oc3c2C)OC1(C)C [novobiocin, 4-hydroxy-3-[4-hydroxy-3-(3-mehtylbut-2-enyl)benzamido]-8-methylcoumarin-7-yl 3-O-carbamoyl-5,5-di-C-methyl-alpha-L-lyxofuranoside]
- effect of NOV on CPPD-induced prolonged survival (neutrophils [1]; neutrophils from healthy controls (human), control = base line, TNFalpha is 100% effect, concentrations <50 uM): No pharmacodynamic effects
- pharmacodynamic effects on CPPD-induced prolonged survival (neutrophils [1]; [13]): No pharmacodynamic effects
- pharmacodynamic effects on neutrophil apoptosis (neutrophils [1]; [13]): No pharmacodynamic effects
- pharmacodynamic effects on neutrophil apoptosis (neutrophils [1]; neutrophils from patients with rheumatoid arthritis, concentrations <60 uM): No pharmacodynamic effects
- pharmacodynamic effects on neutrophil apoptosis (neutrophils [2]; neutrophils from disease model animals (PIA rat), concentrations <60 uM): No pharmacodynamic effects
- effect of NOV on CPPD-induced prolonged survival (neutrophils [2]; neutrophils from healthy controls (rat), control = base line, TNFalpha is 100% effect, concentrations <50 uM): No pharmacodynamic effects
- pharmacodynamic effects on CPPD-induced prolonged survival (neutrophils [2]; [14]): No pharmacodynamic effects
- pharmacodynamic effects on neutrophil apoptosis (neutrophils [2]; [14]): No pharmacodynamic effects
- pharmacodynamic effects on the IL-1 induced mRNA upregulation of MMP1 (MMP1 (collagenase); calf chondrocytes, IL-1 20 ng/mL): No pharmacodynamic effects
- additional pharmacodynamic effects on the inhibition of the IL-1 induced mRNA upregulation of MMP1 by MTX (MMP1 (collagenase); novobiocin added to MTX): No additional pharmacodynamic effects
- pharmacodynamic effects on the IL-1 induced mRNA upregulation of MMP3 (MMP3 (stromelysin1)): No pharmacodynamic effects
- therapeutic effect on the pristane-induced arthritis ([3]; daily per oral administration of up to 80 mg/kg from day 11 to 21 (after onset of disease)): no therapeutic effect
- absorption ([4]; healthy volunteers): rapidly absorbed
- plasma levels versus levels at which any pharmacodynamic effects can be observed in non-clinical models of disease ([4]; healthy volunteers): remain well below
- time to maximum plasma concentrations, sub cutaneous route versus oral route ([4]; healthy volunteers): reached faster
- linearity of pharmacokinetics [5]: linear
- oral availability [6]: about 30%
- dose excreted unaltered in the urine ([7]; Wright W. W. et al., 1956): About 3%
- oral dose excreted in the faeces ([7]; hepatic/biliary excretion): about 30%
- bound to plasma albumin (plasma albumin): 99.2%
- maximum tolerated dose (MTD) [8]: 4 g/day
- AUC(0-inf) [9, 15]: 25.5 µg·h/mL
- Cmax [9, 15]: 9600 ng/mL
- Tmax [9, 15]: 0.9 h
- AUC(0-inf) [9, 16]: 110 µg·h/mL
- AUC(0-t) [9, 16]: 110 µg·h/mL
- Cmax [9, 16]: 23300 ng/mL
- Tmax [9, 16]: 1.8 h
- Cmax ([9]; oral administration (gavage; 55 mg/kg)): 23300 ng/mL

SMILES: CC[C@@]1(O)C(=O)OCc2c1cc1n(c2=O)Cc2cc3ccccc3nc2-1 [Camptothecin]
- IL-1 induced increase in MMP1 mRNA expression (MMP1; [17]): almost completely inhibited
- IL-1 induced increase in MMP3 mRNA expression (MMP3; [17]): almost completely inhibited

SMILES: CN(Cc1cnc2nc(N)nc(N)c2n1)c1ccc(C(=O)N[C@@H](CCC(=O)O)C(=O)O)cc1 [methotrexate, N-[4-[[(2,4-diamino-6-pteridinyl)methyl]methylamino]benzoyl]-L-glutamic acid]
- inflammatory effects of pristane ([3]; 0.1 mg/kg every third day from day 7 (i.v.)): completely ameliorated
- maximum concentrations and total plasma concentrations, sub cutaneous versus oral administration ([4]; 15 mg methotrexate alone): higher
- absorption ([4]; healthy volunteers): rapidly absorbed
- time to maximum plasma concentrations, sub cutaneous route versus oral route ([4]; healthy volunteers): reached faster
- IL-1 induced increase in MMP1 expression (MMP1): suppressed
- time within which non-polyglutamated methotrexate is excreted in the urine after administration ([10]; in vivo): ≤ 12 h
- systemic bioavailability ([10]; man, oral dose): approximately 73%
- bioavailability ([10]; subcutaneous (sc) administration): approx. 95%
- treatment success, RA patients (RA patients; oral application route): 24%
- treatment success, RA patients (RA patients; sc application route): 34%
- patient population in which treatment needs to be terminated due to intolerability [11]: about 30%
- neutrophil apoptosis in RA patients (neutrophils [12]): restoration of neutrophil apoptosis to healthy control levels
- AUC(0-inf) [9, 18]: 0.923 µM·h
- AUC(0-t) [9, 18]: 0.759 µM·h
- Cmax [9, 18]: 277 nM

SMILES: O=C(O)c1cc(/N=N/c2ccc(S(=O)(=O)Nc3ccccn3)cc2)ccc1O [Sulfasalazin]
- IL-1 induced increase in MMP1 expression (MMP1): suppressed
- IL-1 induced increase in MMP3 expression (MMP3; Nose M. et al. (1997)): suppressed
